Experimental data reported in patent US8138193B2, “Fused pyrazine compounds useful for the treatment of degenerative and inflammatory diseases” (Janssen Pharmaceutica N.V., priority 2007, dated 2012).

These compounds were tested against T1, MAPKAPK5 (Homo sapiens, UniProt Q8IW41) (assay: MAPKAP-K5 FlashPlate kinase assay (33P-ATP)). Details: 0.6 μM ATP, 30 minutes at room temperature.
T1 sequence (Q8IW41 1-471 isoform Q8IW41-2): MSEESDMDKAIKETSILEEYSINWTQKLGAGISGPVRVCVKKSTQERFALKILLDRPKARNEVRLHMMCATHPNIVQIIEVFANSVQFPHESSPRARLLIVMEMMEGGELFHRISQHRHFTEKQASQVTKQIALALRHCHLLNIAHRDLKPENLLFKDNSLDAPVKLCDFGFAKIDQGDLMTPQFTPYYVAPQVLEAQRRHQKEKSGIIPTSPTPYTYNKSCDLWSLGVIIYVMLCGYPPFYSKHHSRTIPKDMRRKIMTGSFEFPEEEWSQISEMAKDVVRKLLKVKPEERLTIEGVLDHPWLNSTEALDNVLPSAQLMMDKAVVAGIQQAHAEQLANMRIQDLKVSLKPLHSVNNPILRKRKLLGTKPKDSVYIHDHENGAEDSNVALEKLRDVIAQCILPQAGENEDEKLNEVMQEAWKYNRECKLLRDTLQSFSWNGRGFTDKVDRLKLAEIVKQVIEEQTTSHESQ
Assay type: biochemical
Protocol: 3 μM MAPKAP-K5 peptide substrate

Structure (SMILES) | IC50 [nM]
O=C1NCc2cc(-c3cnc(NC4CCC(O)CC4)c4ncnn34)ccc21 (stereo not drawn) [Example 15, 5-(8-(4-HYDROXYCYCLOHEXYLAMINO)-[1,2,4]TRIAZOLO[1,5-A]PYRAZIN-5-YL)ISOINDOLIN-1-ONE] | 101 to 500
O=C1NCc2cc(-c3cnc(NC4CC4)c4ncnn34)ccc21 [Example 14, 5-(8-(CYCLOPROPYLAMINO)-[1,2,4]TRIAZOLO[1,5-A]PYRAZIN-5-YL)ISOINDOLIN-1-ONE] | 101 to 500
NC(=O)c1cc(-c2cnc(NC3CCC3)c3nccn23)co1 [Example 6, 4-(8-(CYCLOBUTYLAMINO)IMIDAZO[1,2-A]PYRAZIN-5-YL)FURAN-2-CARBOXAMIDE] | 101 to 500
NC(=O)c1cc(-c2cnc(NC3CCCC3)c3nccn23)co1 [Example 7, 4-(8-(CYCLOPENTYLAMINO)IMIDAZO[1,2-A]PYRAZIN-5-YL)FURAN-2-CARBOXAMIDE] | 501 to 1000
O=C1NCc2cc(-c3cnc(NC4CCCCC4)c4nccn34)ccc21 [Example 1, 5-(8-(cyclohexylamino)imidazo[1,2-a]pyrazin-5-yl)isoindolin-1-one] | 101 to 500

Next, values leading:

IC50 [nM] | Structure (SMILES)
501 to 1000 | CC(C)(C)OC(=O)N1CCC(Nc2ncc(-c3ccc4c(c3)CNC4=O)n3ncnc23)CC1 [Example 12, TERT-BUTYL 4-(5-(1-OXOISOINDOLIN-5-YL)-[1,2,4]TRIAZOLO[1,5-A]PYRAZIN-8-YLAMINO)PIPERIDINE-1-CARBOXYLATE]
> 1000 | NC(=O)c1cc(-c2cnc(NC3CCN(Cc4ccccc4)CC3)c3ncnn23)co1 [Example 18, 4-[8-(1-BENZYL-PIPERIDIN-4-YLAMINO)-[1,2,4]TRIAZOLO[1,5-A]PYRAZIN-5-YL]-FURAN-2-CARBOXYLIC ACID AMIDE]
501 to 1000 | NC(=O)c1cc(-c2cnc(NC3CCN(Cc4ccccc4)C3)c3ncnn23)co1 (stereo not drawn) [Example 4, 4-[8-(1-Benzyl-pyrrolidin-3-ylamino)-[1,2,4]triazolo[1,5-a]pyrazin-5-yl]-furan-2-carboxylic acid amide]
101 to 500 | NC(=O)c1cc(-c2cnc(NC3CCC3)c3ncnn23)co1 [Example 2, 4-(8-(cyclobutylamino)-[1,2,4]triazolo[1,5-a]pyrazin-5-yl)furan-2-carboxamide]
501 to 1000 | CC(C)(C)OC(=O)NC1CCC(Nc2ncc(-c3ccc4c(c3)CNC4=O)n3ncnc23)CC1 (stereo not drawn) [Example 16, TERT-BUTYL 4-(5-(1-OXOISOINDOLIN-5-YL)-[1,2,4]TRIAZOLO[1,5-A]PYRAZIN-8-YLAMINO)CYCLOHEXYLCARBAMATE]
101 to 500 | O=C1NCc2cc(-c3cnc(NC4CCC4)c4nccn34)ccc21 [Example 5, 5-(8-(CYCLOBUTYLAMINO)IMIDAZO[1,2-A]PYRAZIN-5-YL)ISOINDOLIN-1-ONE]
> 1000 | NC(=O)c1cc(-c2cnc(NC3CCN(Cc4ccccc4)C3)c3nccn23)co1 (single isomer, unassigned) [Example 17, 4-[8-(1-BENZYL-PYRROLIDIN-3-YLAMINO)-IMIDAZO[1,2-A]PYRAZIN-5-YL]-FURAN-2-CARBOXYLIC ACID AMIDE]
